Tested on: pathogenic Listeria bacteria
Assay: Prevention of Listeria infection in mice (centaurein given before infection), cumulative survival
Type: in vivo, C57BL/6J mice
Conditions: 20 μg per capita intraperitoneally 24 h before 1-2×10^6 Listeria i.p.; ten days after Listeria injection
Protocol: Six-to-eight week-old C57BL/6J mice were injected intraperitoneally with centaurein at a dose ranging from 0-20 μg per capita. After twenty four hours, the same mice were injected with pathogenic Listeria bacteria. A dose of 1-2×10^6 bacteria were introduced intraperitoneally (in a total volume of 0.2 ml) into each mouse. The cumulative survival rates of the mice were then determined. […] In contrast, only 10% of the mice that were injected with Listeria and not treated with centaurein survived. Thus, centaurein protected the mice from a Listerial infection.

COc1ccc(-c2oc3cc(O[C@@H]4O[C@H](CO)[C@@H](O)[C@H](O)[C@H]4O)c(OC)c(O)c3c(=O)c2OC)cc1O [centaurein]
cumulative survival of mice: all of the mice
